Laboratory results published in the supplement of paper PMC9005190.

How the values were obtained:
PAR2 [1] = target: PAR2 (UniProt P55085); assay: Emax (maximal agonist-induced change in ebBRET relative to vehicle) (% of vehicle response (amplitude of change)); higher = larger response (for Gs, larger decrease in membrane ebBRET, i.e. stronger Gs activation)
PAR2 [2] = target: PAR2 (UniProt P55085); assay: pEC50 of agonist-induced pathway activation (ebBRET)
LPA1 = LPA1 (UniProt Q92633); assay: as above
LPA1, sequence (Q92633 whole entry): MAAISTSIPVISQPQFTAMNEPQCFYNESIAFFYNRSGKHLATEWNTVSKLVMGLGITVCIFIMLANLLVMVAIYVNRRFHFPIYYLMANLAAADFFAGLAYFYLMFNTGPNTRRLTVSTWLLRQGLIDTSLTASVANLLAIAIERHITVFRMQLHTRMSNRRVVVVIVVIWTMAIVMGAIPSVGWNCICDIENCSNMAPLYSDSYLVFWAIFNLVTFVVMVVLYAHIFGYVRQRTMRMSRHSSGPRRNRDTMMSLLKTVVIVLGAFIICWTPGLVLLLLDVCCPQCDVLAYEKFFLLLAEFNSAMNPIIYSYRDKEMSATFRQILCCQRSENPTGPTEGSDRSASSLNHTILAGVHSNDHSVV

FFA4 [3] = assay: Emax (maximal agonist-induced change in ebBRET relative to vehicle) (% of vehicle response (amplitude of change)); higher = larger response (for Gs, larger decrease in membrane ebBRET, i.e. stronger Gs activation)
FFA4 [4] = assay: pEC50 of agonist-induced pathway activation (ebBRET)
FP [5] = target: FP (UniProt P43088); assay: Emax (maximal agonist-induced change in ebBRET relative to vehicle) (% of vehicle response (amplitude of change)); higher = larger response (for Gs, larger decrease in membrane ebBRET, i.e. stronger Gs activation)
FP, sequence (P43088 whole entry): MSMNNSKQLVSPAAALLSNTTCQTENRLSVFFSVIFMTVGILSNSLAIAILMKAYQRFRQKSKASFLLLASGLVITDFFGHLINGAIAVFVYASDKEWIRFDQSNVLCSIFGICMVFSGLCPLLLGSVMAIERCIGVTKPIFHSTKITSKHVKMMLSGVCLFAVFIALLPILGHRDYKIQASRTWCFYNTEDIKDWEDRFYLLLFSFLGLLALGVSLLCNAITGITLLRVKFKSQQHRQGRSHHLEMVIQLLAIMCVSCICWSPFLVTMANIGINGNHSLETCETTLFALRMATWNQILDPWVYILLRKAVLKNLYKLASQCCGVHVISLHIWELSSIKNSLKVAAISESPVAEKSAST

FP [6] = target: FP (UniProt P43088); assay: pEC50 of agonist-induced pathway activation (ebBRET)
GPR183 [7] = target: GPR183 (UniProt P32249); assay: Emax (maximal agonist-induced change in ebBRET relative to vehicle) (% of vehicle response (amplitude of change)); higher = larger response (for Gs, larger decrease in membrane ebBRET, i.e. stronger Gs activation)
GPR183, sequence (P32249 whole entry): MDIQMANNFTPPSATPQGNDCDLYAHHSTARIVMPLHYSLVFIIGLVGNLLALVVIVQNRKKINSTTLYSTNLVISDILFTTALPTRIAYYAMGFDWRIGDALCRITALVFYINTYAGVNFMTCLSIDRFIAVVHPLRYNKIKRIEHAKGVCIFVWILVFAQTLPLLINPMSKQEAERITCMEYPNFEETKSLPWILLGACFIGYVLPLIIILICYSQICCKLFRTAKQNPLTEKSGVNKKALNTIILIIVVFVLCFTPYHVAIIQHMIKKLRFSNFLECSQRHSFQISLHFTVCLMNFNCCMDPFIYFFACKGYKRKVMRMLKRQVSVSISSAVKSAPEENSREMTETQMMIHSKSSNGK

GPR183 [8] = target: GPR183 (UniProt P32249); assay: pEC50 of agonist-induced pathway activation (ebBRET)
S1P1 [9] = target: S1P1 (UniProt P21453); assay: Emax (maximal agonist-induced change in ebBRET relative to vehicle) (% of vehicle response (amplitude of change)); higher = larger response (for Gs, larger decrease in membrane ebBRET, i.e. stronger Gs activation)
S1P1, sequence (P21453 whole entry): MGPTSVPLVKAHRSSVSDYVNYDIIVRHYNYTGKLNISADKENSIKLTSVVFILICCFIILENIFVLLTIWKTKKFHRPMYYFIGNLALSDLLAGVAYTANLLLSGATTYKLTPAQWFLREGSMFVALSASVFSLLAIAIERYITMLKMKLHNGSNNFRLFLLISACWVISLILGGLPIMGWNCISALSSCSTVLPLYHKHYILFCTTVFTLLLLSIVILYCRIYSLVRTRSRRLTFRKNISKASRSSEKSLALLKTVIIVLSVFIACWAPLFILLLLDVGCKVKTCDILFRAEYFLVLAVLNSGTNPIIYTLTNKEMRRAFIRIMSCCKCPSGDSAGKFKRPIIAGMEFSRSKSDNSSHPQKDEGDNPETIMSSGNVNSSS

S1P1 [10] = target: S1P1 (UniProt P21453); assay: pEC50 of agonist-induced pathway activation (ebBRET)

PAR2, sequence (P55085 whole entry): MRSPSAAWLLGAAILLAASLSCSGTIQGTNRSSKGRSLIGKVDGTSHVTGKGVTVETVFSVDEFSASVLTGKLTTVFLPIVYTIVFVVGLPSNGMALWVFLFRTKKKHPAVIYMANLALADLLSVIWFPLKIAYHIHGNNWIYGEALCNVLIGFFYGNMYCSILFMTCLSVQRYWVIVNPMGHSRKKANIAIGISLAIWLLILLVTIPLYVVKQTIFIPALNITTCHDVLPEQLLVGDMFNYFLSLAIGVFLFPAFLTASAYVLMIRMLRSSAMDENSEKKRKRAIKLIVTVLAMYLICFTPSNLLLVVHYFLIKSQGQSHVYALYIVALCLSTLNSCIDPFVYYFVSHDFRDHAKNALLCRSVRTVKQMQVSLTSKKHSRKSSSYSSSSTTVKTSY

CC[C@H](C)[C@H](NC(=O)[C@H](CC(C)C)NC(=O)[C@@H](N)CO)C(=O)NCC(=O)N[C@@H](CCCCN)C(=O)N[C@H](C(N)=O)C(C)C [SLIGKV-NH2]
Details | Emax, PAR2 [1] | pEC50, PAR2 [2]
pathway (G protein / arrestin sensor): G11 | 483 | 5.96
pathway (G protein / arrestin sensor): G12 | 41.5 | 7.79
pathway (G protein / arrestin sensor): G13 | 235 | 6.87
pathway (G protein / arrestin sensor): G14 | 419 | 5.46
pathway (G protein / arrestin sensor): G15 | 498 | 5.81
pathway (G protein / arrestin sensor): Gi1 | 621 | 5.32
pathway (G protein / arrestin sensor): Gi2 | 326 | 5.65
pathway (G protein / arrestin sensor): GoA | 217 | 5.85
pathway (G protein / arrestin sensor): GoB | 320 | 6.32
pathway (G protein / arrestin sensor): Gq | 304 | 5.18
pathway (G protein / arrestin sensor): Gz | 188 | 6.23
pathway (G protein / arrestin sensor): βarr1/GRK2 | 861 | 4.65
pathway (G protein / arrestin sensor): βarr2 | 766 | 4.63
pathway (G protein / arrestin sensor): βarr2/GRK2 | 489 | 4.75

CCCCCCCC/C=C\CCCCCCCC(=O)OCC(O)COP(=O)(O)O (stereo not given) [O-LPA]
LPA1
Details | pEC50
pathway (G protein / arrestin sensor): G11 | 6.92
pathway (G protein / arrestin sensor): G13 | 8.35
pathway (G protein / arrestin sensor): G14 | 5.63
pathway (G protein / arrestin sensor): G15 | 6.31
pathway (G protein / arrestin sensor): Gi1 | 9.2
pathway (G protein / arrestin sensor): GoA | 8.89
pathway (G protein / arrestin sensor): Gq | 7.51
pathway (G protein / arrestin sensor): βarr1/GRK2 | 7.53
pathway (G protein / arrestin sensor): βarr2 | 6.58
pathway (G protein / arrestin sensor): βarr2/GRK2 | 7.46

CC/C=C\C/C=C\C/C=C\CCCCCCCC(=O)O [α-linolenic acid]
Details | Emax, FFA4 [3] | pEC50, FFA4 [4]
pathway (G protein / arrestin sensor): G11 | 288 | 5.08
pathway (G protein / arrestin sensor): G13 | 120 | 4.8
pathway (G protein / arrestin sensor): G14 | 297 | 5.5
pathway (G protein / arrestin sensor): G15 | 476 | 5.53
pathway (G protein / arrestin sensor): Gi1 | 35 | 6.12
pathway (G protein / arrestin sensor): Gi2 | 23.3 | 6.31
pathway (G protein / arrestin sensor): GoA | 64 | 5.6
pathway (G protein / arrestin sensor): GoB | 30.2 | 6.27
pathway (G protein / arrestin sensor): Gq | 198 | 5.1
pathway (G protein / arrestin sensor): βarr1/GRK2 | 1090 | 4.7
pathway (G protein / arrestin sensor): βarr2 | 993 | 4.94
pathway (G protein / arrestin sensor): βarr2/GRK2 | 999 | 4.87

CCCCC[C@H](O)/C=C/[C@H]1C(=O)C[C@H](O)[C@@H]1C/C=C\CCCC(=O)O [PGD2]
Details | Emax, FP [5] | pEC50, FP [6]
pathway (G protein / arrestin sensor): G11 | 459 | 8.66
pathway (G protein / arrestin sensor): G12 | 104 | 8.38
pathway (G protein / arrestin sensor): G13 | 183 | 8.78
pathway (G protein / arrestin sensor): G14 | 578 | 8.17
pathway (G protein / arrestin sensor): G15 | 437 | 8.88
pathway (G protein / arrestin sensor): GoA | 84.8 | 6.92
pathway (G protein / arrestin sensor): GoB | 114 | 6.99
pathway (G protein / arrestin sensor): Gq | 306 | 8.73
pathway (G protein / arrestin sensor): Gz | 122 | 7.46

C[C@H](CCCC(C)(C)O)[C@H]1CC[C@H]2[C@@H]3[C@H](O)C=C4C[C@@H](O)CC[C@]4(C)[C@H]3CC[C@]12C [7α-25 dihydroxycholesterol]
Details | Emax, GPR183 [7] | pEC50, GPR183 [8]
pathway (G protein / arrestin sensor): G12 | 53.4 | 8.98
pathway (G protein / arrestin sensor): G15 | 38.1 | 8.51
pathway (G protein / arrestin sensor): Gi1 | 134 | 9.74
pathway (G protein / arrestin sensor): Gi2 | 144 | 9.75
pathway (G protein / arrestin sensor): GoA | 166 | 9.16
pathway (G protein / arrestin sensor): GoB | 190 | 9.75
pathway (G protein / arrestin sensor): Gz | 123 | 9.16
pathway (G protein / arrestin sensor): βarr1/GRK2 | 1120 | 8.95
pathway (G protein / arrestin sensor): βarr2 | 502 | 8.23
pathway (G protein / arrestin sensor): βarr2/GRK2 | 573 | 8.8

CCCCCCCCCCCCC/C=C/[C@@H](O)[C@@H](N)COP(=O)(O)O [Sphingosine 1-phosphate]
Details | Emax, S1P1 [9] | pEC50, S1P1 [10]
pathway (G protein / arrestin sensor): G12 | 92 | 7.18
pathway (G protein / arrestin sensor): G13 | 175 | 6.86
pathway (G protein / arrestin sensor): G15 | 375 | 6.21
pathway (G protein / arrestin sensor): Gi1 | 132 | 8.15
pathway (G protein / arrestin sensor): Gi2 | 99.8 | 7.95
pathway (G protein / arrestin sensor): GoA | 68.5 | 7.75
pathway (G protein / arrestin sensor): GoB | 59.2 | 8.16
pathway (G protein / arrestin sensor): βarr1/GRK2 | 477 | 7.27
pathway (G protein / arrestin sensor): βarr2 | 227 | 6.83
pathway (G protein / arrestin sensor): βarr2/GRK2 | 557 | 7.46
